Assay results taken from patent publication US20220073536A1 (Rigel Pharmaceuticals, Inc., priority 2003, published 2022).
Counter-ions that a name gives are not always drawn. Like-named read-outs stand apart in the source and are kept apart here. One block for each compound: values may come before it.

System: cultured human mast cells (CHMC)
Assay: CHMC low cell density IgE activation: tryptase assay
Assay type: cell-based
Conditions: low cell density CHMC, IgE activation
How it was run: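 Tryptase release, fluorogenic substrate, 30 min RT. Prior anti-IgE stimulation of CHMC, 30 min, 37 °C, after 1 hr preincubation at 1000–1500 cells/well in MT; unstimulated wells received MT.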

[1] = tryptase readout, 8 pt, read-out: LD Tryptase, CHMC, IgE, 8 pt
[2] = tryptase readout, 3 pt, read-out: LD Tryptase, CHMC, IgE, 3 pt
[3] = Homo sapiens, Mast cell, tryptase, 3 pt, read-out: LD Tryptase, CHMC, IgE, 3 pt
[4] = tryptase, 8 pt, read-out: LD Tryptase, CHMC, IgE, 8 pt
[5] = tryptase, 3 pt, read-out: LD Tryptase, CHMC, IgE, 3 pt
[6] = Homo sapiens, Mast cell, tryptase, 8 pt, read-out: LD Tryptase, CHMC, IgE, 8 pt

Compound: CC1(C)Oc2ccc(Nc3nc(Nc4cccc(N5CCOCC5)c4)ncc3F)nc2NC1=O [Compound 1078, N4-(2,2-Dimethyl-3-oxo-4H-5-pyrid[1,4]oxazin-6-yl)-5-fluoro-N2-(3-morpholinophenyl)-2,4-pyrimidinediamine]
- IC50 [1]: < 10 µM

Compound: CNC(=O)COc1cccc(Nc2ncc(F)c(Nc3ccc4c(n3)NC(=O)C(C)(C)O4)n2)c1C [Compound 1079, N4-(2,2-Dimethyl-3-oxo-4H-5-pyrid [1,4]oxazin-6-yl)-5-fluoro-N2-[2-methyl-3-(N-methylamino)carbonylmethyleneoxyphenyl]-2,4-pyrimidinediamine]
- IC50 [1]: < 10 µM

Compound: COc1ccc(Nc2ncc(F)c(Nc3ccc4c(n3)NC(=O)[C@H](C)O4)n2)cc1Cl [Compound 1081, (S)-N2-(3-Chloro-4-methoxyphenyl)-5-fluoro-N4-(2-methyl-3-oxo-2H,4H-5-pyrid[1,4]oxazin-6-yl)-2,4-pyrimidinediamine]
- IC50 [2]: < 10 µM
- IC50 [1]: < 10 µM

Compound: COc1cc(Nc2ncc(F)c(Nc3ccc4c(n3)NC(=O)[C@H](C)O4)n2)cc(OC)c1OC [Compound 1082, (S)-5-Fluoro-N4-(2-methyl-3-oxo-2H,4H-5-pyrid[1,4]oxazin-6-yl)-N2-(3,4,5-trimethoxyphenyl)-2,4-pyrimidinediamine]
- IC50 [2]: < 10 µM
- IC50 [1]: < 10 µM

Compound: O=C1COc2ccc(Nc3ncc(F)c(Nc4ccc5c(c4)NC(=O)CO5)n3)cc2N1 [Compound 1083, N2,N4-Bis (3-oxo-2H,4H-benz[1,4]oxazin-6-yl)-5-fluoro-2,4-pyrimidinediamine]
- IC50 (Homo sapiens, Mast cell, tryptase readout, 3 pt, read-out: LD Tryptase, CHMC, IgE, 3 pt): < 10 µM
- IC50 (Homo sapiens, Mast cell, tryptase readout, 8 pt, read-out: LD Tryptase, CHMC, IgE, 8 pt): < 10 µM

Compound: Cc1cc(C)cc(Nc2ncc(F)c(Nc3ccc4c(n3)NC(=O)[C@H](C)O4)n2)c1 [Compound 1084, (S)-N2-(3,5-Dimethylphenyl)-5-fluoro-N4-(2-methyl-3-oxo-2H,4H-5-pyrid[1,4]oxazin-6-yl)-2,4-pyrimidinediamine]
- IC50 [2]: > 10 µM
- IC50 [1]: < 10 µM

Compound: CCOC(=O)N1CCN(c2cccc(Nc3ncc(F)c(NC4CN(C(=O)OC(C)(C)C)C4)n3)c2)CC1 [Compound 1129]
- IC50 [3]: > 10 µM

Compound: CCOC(=O)N1CCN(c2cccc(Nc3ncc(F)c(NC4CNC4)n3)c2)CC1 [Compound 1130]
- IC50 [3]: > 10 µM

Compound: CN1CCN(c2ccc(Nc3ncc(F)c(NC4CNC4)n3)cc2)CC1 [Compound 1131]
- IC50 [3]: > 10 µM

Compound: CN(c1nc(Cl)ncc1F)C1CCC1 [Compound 1133, 2-Chloro-N4-cyclobutyl-5-fluoro-N4-methyl-4-pyrimidineamine]
- IC50 [3]: > 10 µM

Compound: CN1CCN(c2ccc(Nc3ncc(F)c(NC4CCC4)n3)cc2Cl)CC1 [Compound 1188, N4-Cyclobutyl-5-fluoro-N2-[3-chloro-4-(4-methylpiperazino)phenyl]-2,4-pyrimidinediamine]
- IC50 [3]: < 10 µM

Compound: CC(=O)N1CCN(c2ccc(Nc3ncc(F)c(NC4CCC4)n3)cc2)CC1 [Compound 1192, N2-[4-(4-Acetylpiperazino)phenyl]-N4-cyclobutyl-5-fluoro-2,4-pyrimidinediamine Bis Hydrogen Chloride Salt]
- IC50 [5]: < 10 µM

Compound: CN1CCN(c2ccc(Nc3ncc(F)c(NC4CCCC4)n3)cc2Cl)CC1 [Compound 1195, N2-[3-Chloro-4-(4-methylpiperazino)phenyl]-N4-cyclopentyl-5-fluoro-2,4-pyrimidinediamine]
- IC50 [3]: < 10 µM

Compound: CN1CCN(c2ccc(Nc3ncc(F)c(Nc4cc(C5CC5)n[nH]4)n3)cc2Cl)CC1 [Compound 1196, N2-[3-Chloro-4-(4-methylpiperazino)phenyl]-N4-(3-cyclopropyl-1H-pyrazol-5-yl)-5-fluoro-2,4-pyrimidinediamine]
- IC50 [3]: < 10 µM

Compound: CN1CCN(c2ccc(Nc3ncc(F)c(NC4CCCCC4)n3)cc2Cl)CC1 [Compound 1199, N2-[3-Chloro-4-(4-methylpiperazino)phenyl]-N4-cyclohexyl-5-fluoro-2,4-pyrimidinediamine Bis Hydrogen Chloride Salt]
- IC50 [4]: < 10 µM

Compound: Cc1cc(Nc2ncc(F)c(NC3CCCC3)n2)ccc1N1CCN(C)CC1 [Compound 1200]
- IC50 [3]: < 10 µM

Compound: Cc1cc(Nc2ncc(F)c(NC3CCCCC3)n2)ccc1N1CCN(C)CC1 [Compound 1201]
- IC50 [3]: < 10 µM
- IC50 [6]: < 10 µM

Compound: Cc1cc(Nc2ncc(F)c(Nc3cc(C4CC4)n[nH]3)n2)ccc1N1CCN(C)CC1 [Compound 1202]
- IC50 [3]: < 10 µM
- IC50 [6]: < 10 µM

Compound: CC(C)Nc1nc(Nc2ccc(N3CCN(C)CC3)cc2)ncc1F [Compound 1204]
- IC50 [3]: < 10 µM

Compound: CC(C)Nc1nc(Nc2ccc(N3CCN(C)CC3)c(Cl)c2)ncc1F [Compound 1205]
- IC50 [3]: < 10 µM

Compound: Cc1cc(Nc2ncc(F)c(NC(C)C)n2)ccc1N1CCN(C)CC1 [Compound 1206]
- IC50 [3]: < 10 µM
- IC50 [6]: > 10 µM

Compound: CN1CCN(c2ccc(Nc3ncc(F)c(NC4CCC4)n3)cc2C(F)(F)F)CC1 [Compound 1207]
- IC50 [3]: < 10 µM

Compound: CN1CCN(c2ccc(Nc3ncc(F)c(NC4CCCC4)n3)cc2C(F)(F)F)CC1 [Compound 1208]
- IC50 [3]: < 10 µM

Compound: CN1CCN(c2ccc(Nc3ncc(F)c(NC4CCCCC4)n3)cc2C(F)(F)F)CC1 [Compound 1209]
- IC50 [3]: < 10 µM

Compound: CC(C)Nc1nc(Nc2ccc(N3CCN(C)CC3)c(C(F)(F)F)c2)ncc1F [Compound 1210]
- IC50 [3]: < 10 µM

Continued, values first:

- IC50 [1]: < 10 µM
Compound: CN1CCN(c2cccc(Nc3ncc(F)c(Nc4ccc5c(n4)NC(=O)CO5)n3)c2)CC1 [Compound 1074, 5-Fluoro-N2-[3-(4-methylpiperazino)phenyl]-N4-(3-oxo-2H,4H-5-pyrid[1,4]oxazin-6-yl)-2,4-pyrimidinediamine]

- IC50 [1]: < 10 µM
Compound: CCOC(=O)N1CCN(c2cccc(Nc3ncc(F)c(Nc4ccc5c(n4)NC(=O)C(C)(C)O5)n3)c2)CC1 [Compound 1075, N4-(2,2-Dimethyl-3-oxo-4H-5-pyrid[1,4]oxazin-6-yl)-N2-[3-(4-ethoxycarbonylpiperazino)phenyl]-5-fluoro-2,4-pyrimidinediamine]

- IC50 [1]: < 10 µM
Compound: CC(=O)N1CCN(c2cccc(Nc3ncc(F)c(Nc4ccc5c(n4)NC(=O)C(C)(C)O5)n3)c2)CC1 [Compound 1076, N2-[3-(4-Acetylpiperazino)phenyl]-N4-(2,2-dimethyl-3-oxo-4H-5-pyrid[1,4]oxazin-6-yl)-5-fluoro-2,4-pyrimidinediamine]

- IC50 [1]: < 10 µM
Compound: CCOC(=O)N1CCN(c2ccc(Nc3ncc(F)c(Nc4ccc5c(n4)NC(=O)C(C)(C)O5)n3)cc2)CC1 [Compound 1077, N4-(2,2-Dimethyl-3-oxo-4H-5-pyrid [1,4]oxazin-6-yl)-N2-[4-(4-ethoxycarbonylpiperazino)phenyl]-5-fluoro-2,4-pyrimidinediamine]

- IC50 [1]: < 10 µM
Compound: CN1CCN(c2cccc(Nc3ncc(F)c(Nc4ccc5c(n4)NC(=O)C(C)(C)O5)n3)c2)CC1 [Compound 1080, N4-(2,2-Dimethyl-3-oxo-4H-5-pyrid [1,4]oxazin-6-yl)-5-fluoro-N2-[3-(4-methylpiperazino)phenyl]-2,4-pyrimidinediamine]

- IC50 [4]: < 10 µM
Compound: Fc1cnc(Nc2cccc(-c3cnco3)c2)nc1Nc1ccc2c(n1)NCCO2 [Compound 1132, N4-(3,4-Dihydro-2H,4H-5-pyrid[1,4]oxazin-6-yl)-5-fluoro-N2-[3-(oxazol-5-yl)phenyl]-2,4-pyrimidinediamine]

- IC50 [5]: < 10 µM
- IC50 [4]: < 10 µM
Compound: CC(=O)N1CCN(c2ccc(Nc3ncc(F)c(Nc4ccc5c(n4)NCCO5)n3)cc2)CC1 [Compound 1134, N2-[4-(4-Acetylpiperazino)phenyl]-N4-(3,4-dihydro-2H,4H-5-pyrid[1,4]oxazin-6-yl)-5-fluoro-2,4-pyrimidinediamine]

- IC50 [5]: < 10 µM
- IC50 [4]: < 10 µM
Compound: CCOC(=O)N1CCN(c2ccc(Nc3ncc(F)c(Nc4ccc5c(n4)NCCO5)n3)cc2)CC1 [Compound 1135, N4-(3,4-Dihydro-2H,4H-5-pyrid[1,4]oxazin-6-yl)-N2-[4-(4-ethoxycarbonylpiperazino)phenyl]-5-fluoro-2,4-pyrimidinediamine]

- IC50 [5]: < 10 µM
- IC50 [4]: < 10 µM
Compound: Fc1cnc(Nc2cccc(N3CCOCC3)c2)nc1Nc1ccc2c(n1)NCCO2 [Compound 1136, N4-(3,4-Dihydro-2H,4H-5-pyrid[1,4]oxazin-6-yl)-5-fluoro-N2-(3-morpholinophenyl)-2,4-pyrimidinediamine]

- IC50 [5]: < 10 µM
- IC50 [4]: < 10 µM
Compound: CC(=O)N1CCN(c2cccc(Nc3ncc(F)c(Nc4ccc5c(n4)NCCO5)n3)c2)CC1 [Compound 1137, N2-[3-(4-Acetylpiperazino)phenyl]-N4-(3,4-dihydro-2H,4H-5-pyrid[1,4]oxazin-6-yl)-5-fluoro-2,4-pyrimidinediamine]

- IC50 [5]: < 10 µM
- IC50 [4]: < 10 µM
Compound: CCOC(=O)N1CCN(c2cccc(Nc3ncc(F)c(Nc4ccc5c(n4)NCCO5)n3)c2)CC1 [Compound 1138, N4-(3,4-Dihydro-2H,4H-5-pyrid[1,4]oxazin-6-yl)-N2-[3-(4-ethoxycarbonylpiperazino)phenyl]-5-fluoro-2,4-pyrimidinediamine]

- IC50 [5]: < 10 µM
- IC50 [4]: < 10 µM
Compound: CN1CCN(c2ccc(Nc3ncc(F)c(Nc4ccc5c(n4)NCCO5)n3)cc2Cl)CC1 [Compound 1197, N2-[3-Chloro-4-(4-methylpiperazino)phenyl]-N4-(3,4-dihydro-2H,4H-5-pyrid[1,4]oxazin-6-yl)-5-fluoro-2,4-pyrimidinediamine]

- IC50 [5]: < 10 µM
- IC50 [4]: < 10 µM
Compound: Cc1cc(Nc2ncc(F)c(Nc3ccc4c(n3)NCCO4)n2)ccc1N1CCN(C)CC1 [Compound 1203, N4-(3,4-Dihydro-2H,4H-5-pyrid[1,4]oxazin-6-yl)-5-fluoro-N2-[3-methyl-4-(4-methylpiperazino)phenyl]-2,4-pyrimidinediamine]
